These results are taken from ChEMBL document CHEMBL1926510, “Naphthoquinone-like polyketide isolated from Streptomyces sp. RI-77 and its predicted biosynthetic pathway” (J Nat Prod, 2011).

The source made the active and inactive calls. No cut-off for these calls is given here.

Assay [1] can be described thus: Antioxidant activity assessed as DPPH radicle scavenging activity after 30 mins by spectrometric analysis. The format is functional. (The DPPH test is a chemical assay of radical scavenging.)
The subject of another assay is Micrococcus luteus. The experiment in a line: Antibacterial activity Micrococcus luteus. The format is functional, organism-based.
A further assay concerns Escherichia coli. The assay can be described thus: Antibacterial activity Escherichia coli. The format is functional, organism-based.

The term IC50 denotes the concentration at which inhibition is half-maximal. On to `Cc1c(C)c2c(c(C)c1O)CC[C@@](C)(CCC[C@H](C)CCC[C@H](C)CCCC(C)C)O2` [ALPHA-TOCOPHEROL], for which the IC50 in assay [1] came to 28 µM.

Turning to `COc1cc(O)c2c(c1O)C(=O)[C@@]13C[C@H]4[C@@H](C[C@H]1C(C)=O)OC(=O)[C@@]4(OC)C(O)=C3C2=O`, the IC50 in assay [1] was 165 µM. Besides, the outcome in the assay on Micrococcus luteus and in the assay with Escherichia coli was inactive.
